Positions of bridges follow the written chain, without caps; N, C: chain ends. Non-standard residues stand in square brackets, D forms with d. Residues, ends and D or L forms follow the SMILES beside them.

Data on one compound can be found in patent US20240336657A1, “G-ALPHA-S PEPTIDE INHIBITORS AND USES THEREOF” (The Regents of the University of California, priority 2021, published 2024).

In one test the target is Gαi (Homo sapiens, UniProt P63096). Description: Nucleotide exchange step (GDP dissociation / GTPγS binding). The class given is biochemical. Particulars: compared with Gαs. The method, then: Gα proteins were diluted to 400 nM in the EDTA buffer (20 mM HEPES 7.5, 150 mM NaCl, 1 mM EDTA-Na 8.0, 2 mM DTT). [^3H]GDP (1 mCi/mL, 25.2 μM) was added to a final concentration of 1.2 μM, followed by cyclic peptides addition. After incubation at 20° C. for 30 minutes, the same volume of assay buffer ([…] HEPES-Na 7.5, 150 mM NaCl, 2 mM MgCl2, and 1 mM GDP) was added to initiate [^3H]GDP dissociation. At various points, […] was removed and mixed with 390 μL of ice-cold wash buffer (20 mM HEPES 7.5, 150 mM NaCl, 20 mM MgCl2). The mixture was immediately filtered through a mixed cellulose membrane (25 mm, 0.22 μm) held by a microanalysis filter holder (EMD Millipore). The membrane was washed by ice-cold wash buffer (500 μL×3), put in a 6-mL plastic vial and air-dried (room temperature 1.5 h). 5 mL of CytoScint-ES Liquid Scintillation Cocktail was added to each vial. After incubation overnight at room temperature, the vial was used for liquid scintillation counting with a LS 6500 Multi-Purpose Scintillation Counter.
Sequence of Gαi (P63096 whole entry): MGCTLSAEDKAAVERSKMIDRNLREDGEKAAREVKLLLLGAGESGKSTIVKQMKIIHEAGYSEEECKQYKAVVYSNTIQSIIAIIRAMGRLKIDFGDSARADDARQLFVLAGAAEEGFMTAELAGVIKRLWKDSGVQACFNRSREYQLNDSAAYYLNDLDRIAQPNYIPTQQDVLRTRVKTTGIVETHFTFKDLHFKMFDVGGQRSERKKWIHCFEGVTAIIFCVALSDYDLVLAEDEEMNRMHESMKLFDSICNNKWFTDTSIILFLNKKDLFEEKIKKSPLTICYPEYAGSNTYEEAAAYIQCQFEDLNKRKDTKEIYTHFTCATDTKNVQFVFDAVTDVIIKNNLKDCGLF
Gα proteins were diluted to 10 μM with dilution buffer (20 mM HEPES 7.5, 150 mM NaCl, 1 mM MgCl2, 2 mM DTT, and 20 μM GDP) and incubated with 5× stocks of cyclic peptides at room temperature for 2 hours. GTPγS binding was initiated by mixing with the reaction buffer at room temperature (50 nM [35S]GTPγS and 100 μM GTPγS in dilution buffer) at room temperature. […]

The target in the next test is Gαs S275L (Homo sapiens, UniProt P63092, S275L). As to the kind of experiment: Adenylyl cyclase activation assay in the presence of Gβ1/γ2. The class given is biochemical. Set-up: made in house; host or cells: Escherichia coli BL21(DE3) (Gαs, VC1, IIC2); Sf9 insect cells (Gβ1/Gγ2). Conditions: 6.25 μM of GN13. The method, then:
GN13 inhibition of Gαs proteins at various concentrations (FIG. 18E).
WT Gαs and S275L mutant at a concentration of 8.5 mg/mL (about 190 μM) in 20 mM HEPES 8.0, 150 mM NaCl, 5 mM MgCl2, 1 mM EDTA-Na 8.0 were diluted to a series of concentrations (4 μM, 1.33 μM, 0.44 μM, 0.15 μM, 49.4 nM, 16.5 nM, 5.5 nM, 0 nM) in dilution buffer (1×PBS 7.4, 0.1% BSA, 1 mM EDTA-Na 8.0, 2 mM DTT, 0.1 mM MgCl2) plus 1 mM GppNHp. After incubation at room temperature for 1 hour to allow nucleotide exchange, 2.5 μL of each sample was then mixed with 1 μL of MgCl2 stock (20 mM MgCl2, 1× PBS 7.4, 0.1% BSA) in an OptiPlate-384, White Opaque 384-well Microplate. 2 μL of adenylyl cyclase/Gβγ stock (2 μM VC1, 2 nM IIC2, 150 μM FSK, 1× PBS 7.4, 0.1% BSA, 10 μM Gβ1/γ2(C68S)) was added, followed by addition of 2.5 μL 25 μM GN13 stock in 1× PBS 7.4, 0.1% BSA. […] The cAMP concentrations were measured by the LANCE Ultra cAMP kit. […]
A cAMP standard curve was generated in the same plate using the 50 μM cAMP standard in the kit. […] 10 μL of each diluted sample was mixed with 5 μL of 4× Eu-cAMP tracer and 5 μL of 4× ULight-anti-cAMP in a white, opaque Optiplate-384 microplate, incubated for 1 hour at room temperature, and the time-resolved fluorescence resonance energy transfer (TR-FRET) signals were read on a Spark 20M plate reader. […]

Sequence of Gαs S275L (P63092 7-380 isoform P63092-2 S261L limits assumed): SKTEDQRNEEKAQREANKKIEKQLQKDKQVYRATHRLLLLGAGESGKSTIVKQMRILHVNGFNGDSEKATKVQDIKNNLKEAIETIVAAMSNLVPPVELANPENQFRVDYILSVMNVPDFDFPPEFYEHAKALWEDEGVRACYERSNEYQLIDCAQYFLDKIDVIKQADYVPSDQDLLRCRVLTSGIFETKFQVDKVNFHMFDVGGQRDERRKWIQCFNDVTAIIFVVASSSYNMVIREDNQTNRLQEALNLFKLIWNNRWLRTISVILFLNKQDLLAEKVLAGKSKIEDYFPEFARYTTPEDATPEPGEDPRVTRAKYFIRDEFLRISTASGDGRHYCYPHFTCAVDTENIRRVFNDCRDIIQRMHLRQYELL

As to `CC[C@H](C)[C@@H]1NC(=O)[C@H](C)NC(=O)[C@H](Cc2ccc(O)cc2)NC(=O)[C@H](C(C)C)NC(=O)[C@H](CO)NC(=O)[C@H](CCC(=O)O)NC(=O)[C@H](Cc2ccccc2)NC(=O)[C@@H](Cc2ccc(O)cc2)NC(=O)CSC[C@@H](C(=O)NCC(N)=O)NC(=O)[C@H](CC(C)C)NC(=O)[C@H]([C@@H](C)O)NC(=O)CNC(=O)[C@H](Cc2c[nH]c3ccccc23)NC1=O` [GN13] ({CH2CO}-[dY]FESVYAIWGTLCG-NH2; thioether N-13), the “sensitivity of the nucleotide exchange step of Gαi” value at Gαi is listed as “much less sensitive”. In addition, on Gαs S275L, the “inhibition of adenylyl cyclase activation by Gαs S275L” value is given as “resistant to GN13 inhibition”.
